Laboratory results published in patent US20250263370A1 (Tay Therapeutics Limited, priority 2022, published 2025).
Values joined by “and” are separate entries in the source; they are usually repeats but may differ in a detail not shown here. Identical values can stand only once.

Tested on: collagen-induced arthritis
Assay: Collagen-induced arthritis (CIA) model in rats: body weight, paw volume, clinical scores, clinical observations; as to Average detailed clinical score, left hind limb: key of the grades not given here; as to Average detailed clinical score, right hind limb: key of the grades not given here; as to Detailed Clinical Scores: left forelimb: key of the grades not given here; as to Detailed Clinical Scores: left hind limb: key of the grades not given here; as to Detailed Clinical Scores: right forelimb: key of the grades not given here; as to Detailed Clinical Scores: right hind limb: key of the grades not given here; as to Detailed Clinical Scores: score: key of the grades not given here; as to Mean overall clinical score ± SD: key of the grades not given here; as to overall clinical score: key of the grades not given here
Conditions: for Average detailed clinical score, left hind limb / Average detailed clinical score, right forelimb / Average detailed clinical score, right hind limb / Average detailed clinical score, score / Mean overall clinical score ± SD / Overall clinical score / Average detailed clinical score, left forelimb / Detailed Clinical Scores: left forelimb / Detailed Clinical Scores: left hind limb / Detailed Clinical Scores: right forelimb / Detailed Clinical Scores: right hind limb / Detailed Clinical Scores: score: CIA rats; for Overall clinical score: individual animals #1-8; for Mean animal paw volume ± SD: group mean; for Animal paw volume percent change: individual animals; for Detailed Clinical Scores: left forelimb / Detailed Clinical Scores: left hind limb / Detailed Clinical Scores: right forelimb / Detailed Clinical Scores: right hind limb / Detailed Clinical Scores: score: individual animals ID 1-8
Description: Prior to be randomly placed in treatment groups, animals were weighed, and paw volume was measured. Once randomly assigned to treatment groups, on Day 0, animals in groups 2-9 were immunized by subcutaneous injection at the base of the tail.
The immunization comprised 100 μL of the CFA+Collagen emulsion (prepared according to the method in Experimental Method A). Animals in group one received no immunization. Seven days after the first injection, animals in groups 2-9 received a booster immunization comprising 200 μL of the IFA+Collagen emulsion (prepared according to the method in Experimental Method A).
Starting on Day 0, animals in group 1 and 2 were administered daily doses of the vehicle per os (P.O.) for 21 days. […] The twice daily doses for animals in groups 4-9 were 8 hours apart (e.g., the first dose at 8:00 AM and the second dose at 4:00 PM).
Body weight of all animals was recorded daily for the 21-day period. Blind clinical scores on all four limbs were conducted for all animals in the study. Animals were assessed prior to receiving their first dose of the compound or control, and scores for each limb were combined to a total daily score for each animal. Clinical score assessments were performed on Day 0, 6, 12, 13, 14, 15, 18, 19, and 21 (for a total of 9 daily scores).
Paw volume was recorded for each animal on Day 0, 6, 12, 13, 14, 15, 18, 19, and 21 (for a total of 9 measurements). To measure paw volume, animals were gently held with one hand while the hind paw was placed into a plethysmometer with the other hand. Lipid displacement by the paw was recorded and used to represent paw volume.
All data measured and recorded was analyzed using SPSS 16.0 software. Groups were compared using one-way ANOVA and significance was set at p<0.05.

CNC(=O)c1[nH]c(C(=O)NC2CCC2)cc1O[C@@H](C)c1ccccc1 (stereo in doubt) [Example 101, N^5-cyclobutyl-N^2-methyl-3-(1-phenylethoxy)-1H-pyrrole-2,5-dicarboxamide]
Average detailed clinical score, left hind limb (Day 15, 3 mg/kg): 2.00
Average detailed clinical score, right forelimb (Day 15, 3 mg/kg): 0.25
Average detailed clinical score, right hind limb (Day 15, 3 mg/kg): 2.13
Average detailed clinical score, score (Day 15, 3 mg/kg): 4.38
Mean overall clinical score ± SD (Day 15, 3 mg/kg): 4 ± 2
Overall clinical score (Day 15, 3 mg/kg): 2 and 3 (3×) and 6 (2×) and 8 and 4
Average detailed clinical score, left forelimb (Day 15, 10 mg/kg): 0.00
Average detailed clinical score, left hind limb (Day 15, 10 mg/kg): 1.75
Average detailed clinical score, right forelimb (Day 15, 10 mg/kg): 0.00
Average detailed clinical score, right hind limb (Day 15, 10 mg/kg): 1.50
Average detailed clinical score, score (Day 15, 10 mg/kg): 3.25
Mean overall clinical score ± SD (Day 15, 10 mg/kg): 3 ± 3
Overall clinical score (Day 15, 10 mg/kg): 5 and 4 and 7
Average detailed clinical score, left forelimb (Day 15, 30 mg/kg): 0.00
Average detailed clinical score, left hind limb (Day 15, 30 mg/kg): 0.38
Average detailed clinical score, right forelimb (Day 15, 30 mg/kg): 0.00
Average detailed clinical score, right hind limb (Day 15, 30 mg/kg): 0.50
Average detailed clinical score, score (Day 15, 30 mg/kg): 0.88
Mean overall clinical score ± SD (Day 15, 30 mg/kg): 1 ± 1
Mean animal paw volume ± SD (Day 18, L paw, 3 mg/kg): 2.49 mL
Animal paw volume percent change (Day 18, L paw, 3 mg/kg): 83.52% and 101.14% and 98.86% and 81.04% and 106.51% and 80.59% and 82.40%
Mean animal paw volume ± SD (Day 18, L paw, 10 mg/kg): 2.08 mL
Animal paw volume percent change (Day 18, L paw, 10 mg/kg): 72.92% and 61.90% and 97.28% and 109.73% and 15.71% and 76.54%
Mean animal paw volume ± SD (Day 18, L paw, 30 mg/kg): 1.70 mL
Mean animal paw volume ± SD (Day 18, R paw, 3 mg/kg): 2.53 mL
Animal paw volume percent change (Day 18, R paw, 3 mg/kg): 67.68% and 91.39% and 100.38% and 76.49% and 106.51% and 89.22% and 86.89%
Mean animal paw volume ± SD (Day 18, R paw, 10 mg/kg): 2.02 mL
Animal paw volume percent change (Day 18, R paw, 10 mg/kg): 58.36% and 65.34% and 94.21% and 111.20% and 22.39% and 46.36%
Mean animal paw volume ± SD (Day 18, R paw, 30 mg/kg): 1.63 mL
Detailed Clinical Scores: left forelimb (Day 18, 3 mg/kg): 0
Detailed Clinical Scores: left hind limb (Day 18, 3 mg/kg): 3 and 4
Detailed Clinical Scores: right forelimb (Day 18, 3 mg/kg): 0
Detailed Clinical Scores: right hind limb (Day 18, 3 mg/kg): 4 and 3
Detailed Clinical Scores: score (Day 18, 3 mg/kg): 7
Average detailed clinical score, left forelimb (Day 18, 3 mg/kg): 0.50
Average detailed clinical score, left hind limb (Day 18, 3 mg/kg): 3.88
Average detailed clinical score, right forelimb (Day 18, 3 mg/kg): 0.50
Average detailed clinical score, right hind limb (Day 18, 3 mg/kg): 3.88
Average detailed clinical score, score (Day 18, 3 mg/kg): 8.75
Mean overall clinical score ± SD (Day 18, 3 mg/kg): 9 ± 2
Overall clinical score (Day 18, 3 mg/kg): 7 (2×) and 8 (4×) and 12 (2×)
Average detailed clinical score, left forelimb (Day 18, 10 mg/kg): 0.00
Average detailed clinical score, left hind limb (Day 18, 10 mg/kg): 2.50
Average detailed clinical score, right forelimb (Day 18, 10 mg/kg): 0.88
Average detailed clinical score, right hind limb (Day 18, 10 mg/kg): 2.25
Average detailed clinical score, score (Day 18, 10 mg/kg): 5.63
Mean overall clinical score ± SD (Day 18, 10 mg/kg): 6 ± 4
Overall clinical score (Day 18, 10 mg/kg): 7 and 6 and 12
Average detailed clinical score, left forelimb (Day 18, 30 mg/kg): 0.00
Average detailed clinical score, left hind limb (Day 18, 30 mg/kg): 1.13
Average detailed clinical score, right forelimb (Day 18, 30 mg/kg): 0.00
Average detailed clinical score, right hind limb (Day 18, 30 mg/kg): 0.88
Average detailed clinical score, score (Day 18, 30 mg/kg): 2.00
Mean overall clinical score ± SD (Day 18, 30 mg/kg): 2 ± 2
Mean animal paw volume ± SD (Day 19, L paw, 3 mg/kg): 2.64 mL
Animal paw volume percent change (Day 19, L paw, 3 mg/kg): 91.95% and 116.35% and 108.75% and 85.50% and 107.28% and 90.11% and 81.65%
Mean animal paw volume ± SD (Day 19, L paw, 10 mg/kg): 2.07 mL
Animal paw volume percent change (Day 19, L paw, 10 mg/kg): 71.48% and 61.51% and 93.39% and 105.45% and 13.03%
Mean animal paw volume ± SD (Day 19, L paw, 30 mg/kg): 1.76 mL
Mean animal paw volume ± SD (Day 19, R paw, 3 mg/kg): 2.60 mL
Animal paw volume percent change (Day 19, R paw, 3 mg/kg): 67.68% and 117.60% and 98.86% and 76.49% and 104.98% and 107.81% and 86.14%
Mean animal paw volume ± SD (Day 19, R paw, 10 mg/kg): 2.02 mL
Animal paw volume percent change (Day 19, R paw, 10 mg/kg): 67.62% and 63.35% and 90.35% and 108.88% and 21.62%
Mean animal paw volume ± SD (Day 19, R paw, 30 mg/kg): 1.74 mL
Detailed Clinical Scores: left forelimb (Day 19, 3 mg/kg): 1 and 0
Detailed Clinical Scores: left hind limb (Day 19, 3 mg/kg): 4
Detailed Clinical Scores: right forelimb (Day 19, 3 mg/kg): 0
Detailed Clinical Scores: right hind limb (Day 19, 3 mg/kg): 4 and 3
Detailed Clinical Scores: score (Day 19, 3 mg/kg): 9 and 7
Average detailed clinical score, left forelimb (Day 19, 3 mg/kg): 1.13
Average detailed clinical score, left hind limb (Day 19, 3 mg/kg): 4.00
Average detailed clinical score, right forelimb (Day 19, 3 mg/kg): 1.00
Average detailed clinical score, right hind limb (Day 19, 3 mg/kg): 3.75
Average detailed clinical score, score (Day 19, 3 mg/kg): 9.88
Mean overall clinical score ± SD (Day 19, 3 mg/kg): 10 ± 3
Overall clinical score (Day 19, 3 mg/kg): 9 and 7 (2×) and 8 (2×) and 16 and 12 (2×)
Average detailed clinical score, left forelimb (Day 19, 10 mg/kg): 0.00
Average detailed clinical score, left hind limb (Day 19, 10 mg/kg): 2.38
Average detailed clinical score, right forelimb (Day 19, 10 mg/kg): 1.13
Average detailed clinical score, right hind limb (Day 19, 10 mg/kg): 2.88
Average detailed clinical score, score (Day 19, 10 mg/kg): 6.38
Mean overall clinical score ± SD (Day 19, 10 mg/kg): 6 ± 4
Overall clinical score (Day 19, 10 mg/kg): 7 and 6 and 12
Average detailed clinical score, left forelimb (Day 19, 30 mg/kg): 0.00
Average detailed clinical score, left hind limb (Day 19, 30 mg/kg): 1.63
Average detailed clinical score, right forelimb (Day 19, 30 mg/kg): 0.25
Average detailed clinical score, right hind limb (Day 19, 30 mg/kg): 1.75
Average detailed clinical score, score (Day 19, 30 mg/kg): 3.63
Mean overall clinical score ± SD (Day 19, 30 mg/kg): 4 ± 3
Mean animal paw volume ± SD (Day 21, L paw, 3 mg/kg): 2.67 mL
Animal paw volume percent change (Day 21, L paw, 3 mg/kg): 90.42% and 128.52% and 109.51% and 86.25% and 104.98% and 93.04% and 80.15%
Mean animal paw volume ± SD (Day 21, L paw, 10 mg/kg): 2.09 mL
Animal paw volume percent change (Day 21, L paw, 10 mg/kg): 71.48% and 60.71% and 92.61% and 105.06% and 13.03%
Mean animal paw volume ± SD (Day 21, L paw, 30 mg/kg): 1.82 mL
Mean animal paw volume ± SD (Day 21, R paw, 3 mg/kg): 2.59 mL
Animal paw volume percent change (Day 21, R paw, 3 mg/kg): 69.20% and 117.60% and 97.35% and 74.25% and 106.13% and 105.58% and 84.64%
Mean animal paw volume ± SD (Day 21, R paw, 10 mg/kg): 2.08 mL
Animal paw volume percent change (Day 21, R paw, 10 mg/kg): 66.90% and 62.15% and 89.58% and 106.95% and 21.62%
Mean animal paw volume ± SD (Day 21, R paw, 30 mg/kg): 1.79 mL
Average detailed clinical score, left forelimb (Day 21, 3 mg/kg): 1.00
Average detailed clinical score, left hind limb (Day 21, 3 mg/kg): 4.00
Average detailed clinical score, right forelimb (Day 21, 3 mg/kg): 1.00
Average detailed clinical score, right hind limb (Day 21, 3 mg/kg): 3.75
Average detailed clinical score, score (Day 21, 3 mg/kg): 9.75
Mean overall clinical score ± SD (Day 21, 3 mg/kg): 10 ± 3
Overall clinical score (Day 21, 3 mg/kg): 9 and 7 (2×) and 8 (2×) and 14 and 13 and 12
Average detailed clinical score, left forelimb (Day 21, 10 mg/kg): 0.00
Average detailed clinical score, left hind limb (Day 21, 10 mg/kg): 2.50
Average detailed clinical score, right forelimb (Day 21, 10 mg/kg): 1.25
Average detailed clinical score, right hind limb (Day 21, 10 mg/kg): 2.75
Average detailed clinical score, score (Day 21, 10 mg/kg): 6.50
Mean overall clinical score ± SD (Day 21, 10 mg/kg): 7 ± 4
Overall clinical score (Day 21, 10 mg/kg): 7 and 6 and 12 (2×)
Average detailed clinical score, left forelimb (Day 21, 30 mg/kg): 0.00
Average detailed clinical score, left hind limb (Day 21, 30 mg/kg): 1.88
Average detailed clinical score, right forelimb (Day 21, 30 mg/kg): 0.13
Average detailed clinical score, right hind limb (Day 21, 30 mg/kg): 1.63
Average detailed clinical score, score (Day 21, 30 mg/kg): 3.63
Mean overall clinical score ± SD (Day 21, 30 mg/kg): 4 ± 3
